According to PubChem BioAssay (NCI):
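The concentration for 50% growth inhibition is given as GI50. Definition used: TGI = concentration required for complete inhibition of growth.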

Assays:
Test in all cases: NCI anticancer screen, dose series, 384-well format
[1] = test system: KM12 colon
[2] = test system: LOX IMVI melanoma
[3] = test system: SN12C renal
[4] = test system: MDA-MB-231 breast
[5] = test system: SK-OV-3 ovarian
[6] = test system: BT-549 breast
[7] = test system: NCI-H322M lung
[8] = test system: NCI/ADR-RES ovarian
[9] = test system: U251 glioblastoma
[10] = test system: NCI-H226 lung
[11] = test system: OVCAR-4 ovarian
[12] = test system: EKVX NSCLC
[13] = test system: SNB-75 CNS
[14] = test system: MALME-3M melanoma
[15] = test system: OVCAR-3 ovarian
[16] = test system: NCI-H522 lung
[17] = test system: HL-60(TB) leukemia
[18] = test system: SK-MEL-5 melanoma
[19] = test system: SNB-19 CNS
[20] = test system: CCRF-CEM leukemia
[21] = test system: A549 NSCLC
[22] = test system: HS 578T breast
[23] = test system: HCC-2998 colon
[24] = test system: SR leukemia
[25] = test system: MDA-MB-435 melanoma
[26] = test system: SK-MEL-28 melanoma
[27] = test system: RPMI-8226 leukemia
[28] = test system: HOP-92 NSCLC
[29] = test system: RXF 393 renal
[30] = test system: HCT-15 colon
[31] = test system: SF-539 CNS
[32] = test system: SK-MEL-2 melanoma
[33] = test system: MCF7 breast
[34] = test system: IGROV1 ovarian
[35] = test system: OVCAR-5 ovarian
[36] = test system: HCT-116 colon
[37] = test system: M14 melanoma
[38] = test system: SF-268 CNS
[39] = test system: NCI-H23 lung
[40] = test system: K-562 leukemia
[41] = test system: UO-31 renal
[42] = test system: T-47D breast
[43] = test system: NCI-H460 NSCLC
[44] = test system: HT29 colon
[45] = test system: A498 renal
[46] = test system: SW-620 colon
[47] = test system: OVCAR-8 ovarian

`Cn1cc(CNCC2CCN(c3ncc(C(=O)NO)cn3)CC2)c2ccccc21` showed a GI50 [1] of 16.7 nM, a TGI [1] of 63.6 nM and a GI50 [2] of 12.1 nM. It also gave a TGI [2] of 24.9 nM, a GI50 [3] of 14.1 nM and a TGI [3] of 29.7 nM. For the same compound, the GI50 [4] was 14.3 nM, the TGI [4] was 37.2 nM and the GI50 [5] was 15.5 nM. The TGI [5] was 32.9 nM, the GI50 [6] was 21.6 nM and the TGI [6] was 75.8 nM. It also gave a GI50 [7] of 12.3 nM, a TGI [7] of 40.5 nM and a GI50 [8] of 94.9 nM. The TGI [8] was 329 nM, the GI50 [9] was 11.3 nM and the TGI [9] was 24.1 nM. It also gave a GI50 [10] of 31.9 nM, a TGI [10] of 115 nM and a GI50 [11] of 18.9 nM. It also gave a TGI [11] of 46.6 nM, a GI50 [12] of 30.4 nM and a TGI [12] of 303 nM. For the same compound, the GI50 [13] was 10.1 nM, the TGI [13] was 46.1 nM and the GI50 [14] was less than 10 nM. The TGI [14] was less than 14.5 nM, the GI50 [15] was 12.2 nM and the TGI [15] was 28.6 nM. It also gave a GI50 [16] of less than 10 nM, a TGI [16] of 20.8 nM and a GI50 [17] of less than 10 nM. It also gave a TGI [17] of less than 10 nM, a GI50 [18] of less than 10 nM and a TGI [18] of less than 10 nM. It also gave a GI50 [19] of 17.3 nM, a TGI [19] of 45.7 nM and a GI50 [20] of less than 10 nM. It also gave a TGI [20] of less than 10.8 nM, a GI50 [21] of 11.9 nM and a TGI [21] of 32.1 nM. For the same compound, the GI50 [22] was less than 10.4 nM, the TGI [22] was 22.4 nM and the GI50 [23] was less than 11.1 nM. The TGI [23] was 24.8 nM, the GI50 [24] was less than 10 nM and the TGI [24] was less than 10 nM. The GI50 [25] was 12.1 nM, the TGI [25] was 29.7 nM and the GI50 [26] was less than 11 nM. It also gave a TGI [26] of 27.6 nM, a GI50 [27] of less than 10 nM and a TGI [27] of less than 10 nM. The GI50 [28] was less than 12.2 nM, the TGI [28] was 31.7 nM and the GI50 [29] was 16.2 nM. The TGI [29] was 35.5 nM, the GI50 [30] was 49.4 nM and the TGI [30] was 300 nM. It also gave a GI50 [31] of 13.9 nM, a TGI [31] of 53 nM and a GI50 [32] of less than 10 nM. For the same compound, the TGI [32] was 10.6 nM, the GI50 [33] was less than 10 nM and the TGI [33] was 20.9 nM. The GI50 [34] was 10.2 nM, the TGI [34] was 23.7 nM and the GI50 [35] was less than 10 nM. The TGI [35] was 23.6 nM, the GI50 [36] was less than 10 nM and the TGI [36] was 15.7 nM. It also gave a GI50 [37] of less than 10 nM, a TGI [37] of 105 nM and a GI50 [38] of less than 10.4 nM. The TGI [38] was 24.4 nM, the GI50 [39] was 13.1 nM and the TGI [39] was 42.1 nM. For the same compound, the GI50 [40] was less than 10.5 nM, the TGI [40] was 22.6 nM and the GI50 [41] was 27.3 nM. The TGI [41] was 123 nM, the GI50 [42] was less than 10 nM and the TGI [42] was 15.5 nM. It also gave a GI50 [43] of less than 11.1 nM, a TGI [43] of 37.1 nM and a GI50 [44] of 10 nM. For the same compound, the TGI [44] was 21.6 nM, the GI50 [45] was 12.8 nM and the TGI [45] was 29.3 nM. For the same compound, the GI50 [46] was 12.9 nM, the TGI [46] was 26.2 nM and the GI50 [47] was less than 10 nM. It also gave a TGI [47] of 21.3 nM.
